Tested on: Herpes simplex virus (HSV) ribonucleotide reductase (RR) enzyme
Assay: Inhibitory effect was evaluated on Herpes simplex virus (HSV) ribonucleotide reductase (RR) enzyme.

IC50: 20 nM
SMILES: CC(C)C[C@@H](NC(=O)[C@@H](CC(=O)O)NC(=O)[C@H](CC(=O)N1CCCC1)NC(=O)[C@H](NC(=O)NC1[C@@H](C)CCC[C@@H]1C)C(C)C)C(=O)O

— BindingDB's records for doi:10.1021/jm960324r (1996)
